Assay results: publication PMC11783601, “Analogue-Sensitive Inhibition of Histone Demethylases Uncovers Member-Specific Function in Ribosomal Protein Synthesis” (Journal of the American Chemical Society, 2025)
Entries after “also recorded” stand apart in the source; their conditions may differ.

Tested on: rRNA transcription in HEK293T cells
Assay: Fixed cell immunofluorescence staining for H3K9me3 and 5FU (BrdU antibody) incorporation into rRNA
Assay type: cell-based, human
Method: Upregulation of protein synthesis is linked to enhanced ribosomal biogenesis driven by the expression and coordinated assembly of the ribosomal RNAs (rRNAs). To systematically investigate the role of KDM4A in rRNA activation, HEK293T cells expressing wild type KDM4A or asKDM4A were briefly (∼15 min) exposed to 5-fluorouridine (5FU), a uridine analogue known to rapidly incorporate into nascent RNAs, in the presence of cell-permeable n-octyl IOX1 or NOL derivative 6B, respectively (Figure 6A). Given that there are about 350 copies of rDNA in the human genome, brief exposure to 5FU ensures the labeling of rRNAs primarily.[49][52] The cells were then fixed and stained with H3K9me3 antibody, along with BrdU antibody which recognizes 5FU, to examine any correlation between histone demethylation and rRNA expression using high-resolution immunofluorescence imaging. Both wild type KDM4A and F185A mutant led to robust increase in 5FU incorporated rRNA levels, while reduction in H3K9me3 signals was observed (Figures 6B,C and S36). […]
19. Fixed cell immunofluorescence staining
Cells were grown on poly-D-lysine (Gibco A3890401) treated glass coverslips (ThermoScientific 12-545-81P) overnight and transfected the next day with 300 ng KDM4A WT/F185A using […] of lipofectamine 2000 (Invitrogen 11668019). The cells were incubated overnight and treated with indicated inhibitor at varying time points. When probing rRNA transcription, cells were incubated with 2 mM 5-Fluorouridine (Sigma F5130) for 15 minutes. […]
20. Quantification of fixed-cell imaging data
TIF images obtained from confocal microscopy experiments were quantified in ImageJ. […]
The mean fluorescent signal was then measured. […]
For the time dependent imaging, cells containing the transfected KDM4A mutant were identified by their HA signal. […] The mean signal was then measured for H3K9me3 or BrdU only within the cells expressing the KDM4A mutant. To compare changes in H3K9me3 or BrdU between trials, the quantification values were normalized to the mean signal at t=0. […]

| Compound | 5FU incorporation into rRNA (HEK293T cells expressing F185A) | H3K9me3 levels (HEK293T cells expressing F185A) | histone demethylation and 5FU incorporation (HEK293T cells overexpressing wild type KDM4A, 10 µM n-octyl IOX1) |
| --- | --- | --- | --- |
| CC(C)CC(NC(=O)C(=O)OCc1cccc(C(F)(F)F)c1)C(=O)O [6B, L-Leu TFMB-ester NOG] | attenuated 5FU incorporation in a dose–response manner | re-emergence of H3K9me3 levels |  |
| CCCCCCCCOC(=O)c1ccc(O)c2ncccc12 [n-octyl IOX1] |  |  | inhibited; also recorded: repressed histone demethylation and 5FU incorporation |
